In ChEMBL document CHEMBL3885881, “DrugMatrix”:

Key:
[1] = species: Rattus norvegicus; type: toxicity, organism-based, Sprague-Dawley; conditions: in vivo, po, 0 mg/kg, 24 h, vehicle control, route oral GAVAGE, dose level Control, time 1 day, vehicle .5 % CMC
Description: DrugMatrix - Regimen: Single

[2] = species: Rattus norvegicus; test: DrugMatrix - Regimen: Daily Repeat; type: toxicity, organism-based, Sprague-Dawley; parameters: regimen Daily Repeat, gender Male, age 6-8 weeks; conditions: in vivo, po, 0 mg/kg, 72 h, route oral GAVAGE, dose level Control, time 3 day, vehicle .5 % CMC

## ClC(Br)Br [DIBROMOCHLOROMETHANE]
[1]; tissue Blood
  ABSOLUTE EOSINOPHIL: 150 CELLS/uL
  ABSOLUTE LYMPHOCYTE: 13279.83 CELLS/uL
  ABSOLUTE MONOCYTE: 654.5 CELLS/uL
  ABSOLUTE SEGMENTED NEUTROPHIL: 1565.67 CELLS/uL
  BASOPHIL: 0%
  EOSINOPHIL: 1%
  ERYTHROCYTE COUNT: 5.36 x10E6/uL
  HEMATOCRIT: 33.37%
  HEMOGLOBIN: 12.52 G/DL
  LEUKOCYTE COUNT: 15.65 x10E3/uL
  LYMPHOCYTE: 84.83%
  MEAN CORPUSCULAR HEMOGLOBIN: 23.4 pg
  MEAN CORPUSCULAR HEMOGLOBIN CONCENTRATION: 37.52 G/DL
  MEAN CORPUSCULAR VOLUME: 62.32 fL
  MONOCYTE: 4.17%
  NEUTROPHIL: 10%
  NUCLEATED RED BLOOD CELLS: 0 /100WBC
  PLATELET COUNT: 1020 x10E3/uL
[1]; tissue Plasma
  ALANINE AMINOTRANSFERASE: 49 u/L
  ALBUMIN: 4.47 G/DL
  ALKALINE PHOSPHATASE: 361.17 u/L
  ASPARTATE AMINOTRANSFERASE: 78.67 u/L
  BLOOD UREA NITROGEN: 13.17 mg/dL
  CARBON DIOXIDE: 29.67 mmol/L
  CHLORIDE: 100.83 MEQ/L
  CHOLESTEROL: 82.17 mg/dL
  CREATININE: 0.15 mg/dL
  GLUCOSE: 150.83 mg/dL
  LACTATE DEHYDROGENASE: 239.17 u/L
  LIPASE: 7.83 u/L
  PHOSPHORUS: 13.82 mg/dL
  POTASSIUM: 6.62 MEQ/L
  SODIUM: 144.25 MEQ/L
  TOTAL BILIRUBIN: 0.15 mg/dL
  TOTAL PROTEIN: 6.2 G/DL
  URIC ACID: 1.57 mg/dL
[2]; tissue Blood
  ABSOLUTE BASOPHIL: 0 CELLS/uL
  ABSOLUTE EOSINOPHIL: 279.83 CELLS/uL
  ABSOLUTE LYMPHOCYTE: 13152.5 CELLS/uL
  ABSOLUTE MONOCYTE: 1013.83 CELLS/uL
  ABSOLUTE SEGMENTED NEUTROPHIL: 2420.5 CELLS/uL
  BASOPHIL: 0%
  EOSINOPHIL: 1.67%
  ERYTHROCYTE COUNT: 5.26 x10E6/uL
  HEMATOCRIT: 32.22%
  HEMOGLOBIN: 12.02 G/DL
  LEUKOCYTE COUNT: 16.87 x10E3/uL
  LYMPHOCYTE: 77.83%
  MEAN CORPUSCULAR HEMOGLOBIN: 22.93 pg
  MEAN CORPUSCULAR HEMOGLOBIN CONCENTRATION: 37.32 G/DL
  MEAN CORPUSCULAR VOLUME: 61.4 fL
  MONOCYTE: 6%
  NEUTROPHIL: 14.5%
  NUCLEATED RED BLOOD CELLS: 0 /100WBC
  PLATELET COUNT: 1122.17 x10E3/uL
[2]; tissue Plasma
  ALANINE AMINOTRANSFERASE: 55.67 u/L
  ALBUMIN: 4.35 G/DL
  ALKALINE PHOSPHATASE: 362.67 u/L
  ASPARTATE AMINOTRANSFERASE: 96 u/L
  BLOOD UREA NITROGEN: 18 mg/dL
  CARBON DIOXIDE: 27.5 mmol/L
  CHLORIDE: 100.17 MEQ/L
  CHOLESTEROL: 74.5 mg/dL
  CREATININE: 0.17 mg/dL
  GLUCOSE: 141.67 mg/dL
  LACTATE DEHYDROGENASE: 682.5 u/L
  LIPASE: 10 u/L
  PHOSPHORUS: 11.5 mg/dL
  POTASSIUM: 6.41 MEQ/L
  SODIUM: 141.2 MEQ/L
  TOTAL BILIRUBIN: 0.18 mg/dL
  TOTAL PROTEIN: 5.88 G/DL
  URIC ACID: 1.4 mg/dL
